Structures can show the parent of a compound that is named as a salt. Where two headings read alike, the source gives them in different places.
What was measured:
[1] = background statement; cited from earlier work
[2] = background statement; cited from earlier work; remark: listed apart in the source
[3] = target: T1, human carbonic anhydrase II (Homo sapiens, UniProt P00918); experiment: Carbonic Anhydrase Inhibition Assay; format: biochemical
[4] = target: T1, human carbonic anhydrase II; experiment: Carbonic Anhydrase Binding Assay
[5] = in vitro inhibition of human carbonic anhydrase II, read-out: IC50
[6] = in vitro binding for human carbonic anhydrase II, read-out: Ki

Row | IC50 [3, 5] [µM] | Ki [4, 6] [µM] | SMILES | also measured
1 |  |  | CC(C)(C)NC[C@H](O)COc1nsnc1N1CCOCC1 [(S)-1-tert-Butylamino-3-[(4-morpholino-1,2-5-thiadiazol-3-yl)ox-yl]-2-propanol] | duration of activity [1]: long duration of activity; local anesthetic properties [1]: devoid of local anesthetic properties; tolerance [1]: minimal tolerance; reduce intraocular pressure [2]: found to reduce intraocular pressure
2 | < 10 | < 10 | NS(=O)(=O)c1cc2c(s1)SCC(=O)N2 [Example 1, 2,3-Dihydro-2-oxo-6-sulfamoyl-1H-thieno[2,3-b][1,4]thiazine] | 
3 | < 10 | < 10 | NS(=O)(=O)c1cc2c(s1)SC(CC(=O)O)C(=O)N2 (centres unmarked) [Example 2, (2,3-Dihydro-2-oxo-6-sulfamoyl-1H-thieno[2,3-b][1,4]thiazin-3-yl)acetic Acid] | 
4 |  |  | NS(=O)(=O)c1cc2c(s1)S(=O)(=O)CC(=O)N2 [Example 4, 2,3-Dihydro-6-sulfamoyl-2,4,4-trioxo-1H-thieno[2,3-b][1,4]thiazine] | IC50 [3]: < 10 µM; Ki [4]: < 10 µM
5 | < 10 | < 10 | NS(=O)(=O)c1cc2c(s1)S(=O)(=O)C(CC(=O)O)C(=O)N2 (centres unmarked) [Example 5, (2,3-Dihydro-2,4,4-trioxo-6-sulfamoyl-1H-thieno[2,3-b][1,4]thiazin-3-yl)acetic acid] | 
6 | < 10 | < 10 | NS(=O)(=O)c1cc2c(s1)S(=O)(=O)CCN2 [Example 6, 2,3-Dihydro-4,4-dioxo-6-sulfamoyl-1H-thieno[2,3-b][1,4]thiazine] | 
7 | < 10 | < 10 | NS(=O)(=O)c1cc2c(s1)S(=O)(=O)CC(=S)N2 [Example 8, 2,3-Dihydro-4,4-dioxo-6-sulfamoyl-2-thiono-1H-thieno[2,3-b][1,4]thiazine] | 
8 | < 10 | < 10 | NS(=O)(=O)c1cc2c(s1)S(=O)(=O)C(CCO)CN2 (centres unmarked) [Example 10, 3-(2-Hydroxyethyl)-2,3-dihydro-4,4-dioxo-6-sulfamoyl-1H-thieno[2,3-b][1,4]thiazine] | 
9 | < 10 | < 10 | COC(=O)CC1C(=O)Nc2cc(S(N)(=O)=O)sc2S1(=O)=O (centres unmarked) [Example 11, Methyl (2,3-Dihydro-2,4,4-trioxo-6-sulfamoyl-1H-thieno[2,3-b][1,4]thiazin-3-yl)acetate] | 
10 | < 10 | < 10 | COC(=O)CC1Sc2sc(S(N)(=O)=O)cc2NC1=O (centres unmarked) [Example 12, Methyl (2,3-Dihydro-2-oxo-6-sulfamoyl-1H-thieno[2,3-b][1,4]thiazin-3-yl)acetate] | 
11 | < 10 | < 10 | NNC(=O)CC1C(=O)Nc2cc(S(N)(=O)=O)sc2S1(=O)=O (centres unmarked) [Example 13, (2,3-Dihydro-6-sulfamoyl-2,4,4-trioxo-1H-thieno[2,3-b][1,4]thiazin-3-yl)acetic Acid Hydrazide] | 
12 | < 10 | < 10 | CCOC(=O)NCC1C(=O)Nc2cc(S(N)(=O)=O)sc2S1(=O)=O (centres unmarked) [Example 14, 2,3-Dihydro-3-ethoxycarbonylaminomethyl-2,4,4-trioxo-6-sulfamoyl-1H-thieno[2,3-b][1,4]thiazine] | 
13 | < 10 | < 10 | COCCOCCN(CCOC)C(=O)CC1C(=O)Nc2cc(S(N)(=O)=O)sc2S1(=O)=O (centres unmarked) [Example 16, N-Methoxyethoxyethyl-N-methoxyethyl(2,3-dihydro-2,4,4-trioxo-6-sulfamoyl-1H-thieno[2,3-b][1,4]thiazin-3-yl)acetamide] | 
14 | < 10 | < 10 | COCCOCCN(CCOC)CCC1C(=O)Nc2cc(S(N)(=O)=O)sc2S1(=O)=O (centres unmarked) [Example 17, 3-[2-(N-Methoxyethoxyethyl-N-methoxyethylamino)ethyl]-2,3-dihydro-2,4,4-trioxo-6-sulfamoyl-1H-thieno[2,3-b][1,4]thiazine] | 
15 | < 10 | < 10 | CC(C)CNCCC1CNc2cc(S(N)(=O)=O)sc2S1(=O)=O (centres unmarked) [Example 18, 3-(2-Isobutylaminoethyl)-2,3-dihydro-4,4-dioxo-6-sulfamoyl-1H-thieno[2,3-b][1,4]thiazine Hydrochloride] | 
16 |  |  | COCCN(CCOC)CCC1CNc2cc(S(N)(=O)=O)sc2S1(=O)=O (centres unmarked) [Example 19, 3-[2-Bis-(2-methoxyethyl)aminoethyl]-2,3-dihydro-4,4-dioxo-6-sulfamoyl-1H-thieno[2,3-b][1,4]thiazine Hydrochloride] | IC50 [3]: < 10 µM; Ki [4]: < 10 µM
17 | < 10 | < 10 | COCCOCCN(CCOC)CCC1CNc2cc(S(N)(=O)=O)sc2S1(=O)=O (centres unmarked) [Example 20, 3-[2-(N-Methoxyethoxyethyl-N-methoxyethylamino)ethyl]-2,3-dihydro-4,4-dioxo-6-sulfamoyl-1H-thieno[2,3-b][1,4]thiazine Hydrochloride] | 
18 |  |  | CNC(=O)Oc1ccc2c(c1)[C@]1(C)CCN(C)[C@@H]1N2C [physostigmine] | reduce intraocular pressure [2]: reduce intraocular pressure
19 |  |  | CC[C@@H]1C(=O)OC[C@@H]1Cc1cncn1C [pilocarpine] | reduce intraocular pressure [2]: reduce intraocular pressure

From patent US5093332A, “Substituted thieno(2,3-B)(1,4)thiazine-6-sulfonamides as antiglaucoma agents” (priority 1990, dated 1992)
